# Data published in US9533977B2, “Oxazolidinone derivative as CETP inhibitor, its preparation method, and pharmaceutical composition comprising the same” (DONG-A ST CO., LTD., priority 2013, dated 2017).
# pIC50: −log10 of the molar value. Like-named read-outs stand apart in the source and are kept apart here.
# Assays:
# CETP [1] = assay: Effect on CETP activity in hamster administered with single dose; type: in vivo, Golden Syrian hamsters; conditions: hamsters, single oral dose 100 mg/kg, blood 0.5-24 hrs after administration, compared to pre-treatment
# Protocol: Each of the compounds of the Examples was orally administered at a dose of 100 mg/kg to three 7-week-old male Golden Syrian hamsters per group. Blood samples were taken from the retro-orbital plexus before administration and 0.5, 1, 2, 4, 6, 8, and 24 hrs after administration, and measured for blood CETP activity using a Roar CETP activity assay kit (Cat#: RB-CETP, Roar Biomedical Inc.).
# CETP [2] = biological target: T1, CETP (Homo sapiens, UniProt P11597); assay: Inhibitory activity against CETP in human plasma (Roar CETP activity kit, fluorescence); type: biochemical; conditions: plasma from healthy men diluted 1:10 in assay buffer, 37° C., 3 hrs, fluorescence 465/535 nm; read-out: IC50, Inhibition of CETP Activity in Human Plasma
# T1 construct: from tissue; host or cells: human plasma from healthy men
# T1 sequence (P11597 18-493): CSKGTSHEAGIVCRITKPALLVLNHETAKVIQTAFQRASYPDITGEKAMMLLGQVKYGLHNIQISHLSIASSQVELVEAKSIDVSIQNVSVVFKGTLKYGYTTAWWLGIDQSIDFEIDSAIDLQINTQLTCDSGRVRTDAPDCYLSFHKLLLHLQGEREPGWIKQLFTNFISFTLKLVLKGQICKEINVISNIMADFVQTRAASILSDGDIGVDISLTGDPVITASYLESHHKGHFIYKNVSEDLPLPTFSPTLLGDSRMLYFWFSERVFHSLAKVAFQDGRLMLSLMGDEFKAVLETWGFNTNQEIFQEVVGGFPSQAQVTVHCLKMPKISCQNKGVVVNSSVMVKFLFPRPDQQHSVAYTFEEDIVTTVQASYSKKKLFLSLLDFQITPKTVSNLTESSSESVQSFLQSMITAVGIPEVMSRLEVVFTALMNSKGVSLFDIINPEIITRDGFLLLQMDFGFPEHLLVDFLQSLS
# Method in brief: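 Healthy male human plasma, diluted 1:10, incubated 3 hrs at 37° C with donor/acceptor fluorescent substrates and compound (0.01–10000 nM, DMSO). Fluorescence at ex 465/em 535 nm, background-corrected against no-plasma and no-compound wells; IC50 from sigmoidal fit.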
# Blood HDL-C = Blood HDL-C level in multi-dosed hamsters; type: in vivo, Golden Syrian Hamsters; conditions: oral 10 mg/kg every day for two weeks, blood two hours after the final administration
# Protocol: (§1) Each of the compounds of Examples 58, 96, 103 and 125 was orally administered at a dose of 10 mg/kg to 10 7-week-old male Golden Syrian Hamsters per group, every day for two weeks. Two hours after the final administration, blood samples were taken from the hamsters which then underwent an autopsy to analyze blood lipid levels and drug concentrations in blood and tissues (adipose tissues and liver)
# [3] = Drug concentration in blood and tissues of hamsters administered with multiple doses; type: in vivo, Golden Syrian Hamsters; conditions: oral 10 mg/kg every day for two weeks; for concentration at 2 h: male, Golden Syrian, hamster, two hours after the final administration
# Protocol: as §1
Compound,Relative Maximal Inhibition of CETP Activity to Pre-Administration (%) (CETP [1]),pIC50 (CETP [2]),also measured
"CCN(c1ncc(-c2cccn2C)cc1CN1C(=O)O[C@H](c2cc(C(F)(F)F)cc(C(F)(F)F)c2)[C@@H]1C)C1CCOCC1 [Example 50, (4S,5R)-5-[3,5-bis(trifluoromethyl)phenyl]-4-methyl-3-({[2-(ethyl)(tetrahydro-2H-pyran-4-yl)amino]-5-(1-methyl-1H-pyrrol-2-yl)pyridin-3-yl}methyl)-oxazolidin-2-one]",57%,7.95,–
"CCN(c1ncc(-c2cccn2C)cc1CN1C(=O)O[C@H](c2cc(C(F)(F)F)cc(C(F)(F)F)c2)[C@@H]1C)C1CCCCC1 [Example 56, (4S,5R)-5-[3,5-bis(trifluoromethyl)phenyl]-4-methyl-3-({[2-(ethyl)(cyclohexyl-4-yl)amino]-5-(1-methyl-1H-pyrrol-2-yl)pyridin-3-yl}methyl) oxazolidin-2-one]",49%,7.96,–
"CCN(c1ncc(-c2c(C)noc2C)cc1CN1C(=O)O[C@H](c2cc(C(F)(F)F)cc(C(F)(F)F)c2)[C@@H]1C)C1CCCCC1 [Example 58, (4S,5R)-5-[3,5-bis(trifluoromethyl)phenyl]-4-methyl-3-({[2-(ethyl)(cyclohexyl)amino]-5-(3,5-dimethylisoxazol-4-yl)pyridin-3-yl}methyl)-oxazoliclin-2-one]",55%,8.57,"Relative Increase HDL-C (%) to VC (Vehicle) (Blood HDL-C): 47%; concentration at 2 h ([3]; adipose tissue, read-out: Drug Concentration Adipose Tissue): 10200 ng/g; concentration at 2 h ([3]; blood, read-out: Drug Concentration Blood): 606 ng/mL; concentration at 2 h ([3]; liver, read-out: Drug Concentration Liver Tissue): 415 ng/g; Distribution between blood, liver and adipose tissues (in words) [3]: at low levels in blood and liver tissues, but at high levels in adipose tissues"
"CCN(c1ncc(-c2ccsc2)cc1CN1C(=O)O[C@H](c2cc(C(F)(F)F)cc(C(F)(F)F)c2)[C@@H]1C)C1CCCCC1 [Example 77, (4S,5R)-5-[3,5-bis(trifluoromethyl)phenyl]-4-methyl-3-({[2-(ethyl)(cyclohexyl)amino]-5-(thiophen-3-yl)pyridin-3-yl}methyl)-oxazolidin-2-one]",50%,8.68,–
"CCN(c1ncc(-c2csnc2C)cc1CN1C(=O)O[C@H](c2cc(C(F)(F)F)cc(C(F)(F)F)c2)[C@@H]1C)C1CCCCC1 [Example 87, (4S,5R)-5-[3,5-bis(trifluoromethyl)phenyl]-4-methyl-3-({[2-(ethyl)(cyclohexyl)amino]-5-(3-methyl-isothioxazol-4-yl)pyridin-3-yl}methyl)-oxazolidin-2-one]",59%,8.25,–
"CCN(c1ncc(N2CCCC2)cc1CN1C(=O)O[C@H](c2cc(C(F)(F)F)cc(C(F)(F)F)c2)[C@@H]1C)C1CCCCC1 [Example 88, (4S,5R)-5-[3,5-bis(trifluoromethyl)phenyl]-4-methyl-3-({[2-(ethyl)(cyclohexyl)amino]-5-(pyrrolidin-1-yl)pyridin-3-yl}methyl)-oxazolidin-2-one]",45%,7.97,–
"CCN(c1ncc(N2CCCC2C)cc1CN1C(=O)O[C@H](c2cc(C(F)(F)F)cc(C(F)(F)F)c2)[C@@H]1C)C1CCCCC1 (stereo partly drawn) [Example 89, (4S,5R)-5-[3,5-bis(trifluoromethyl)phenyl]-4-methyl-3-({[2-(ethyl)(cyclohexyl)amino]-5-(2-methyl-pyrrolidin-1-yl)pyridin-3-yl}methyl)-oxazolidin-2-one]",53%,8.15,–
CCN(C[C@H]1CC[C@H](CC(=O)O)CC1)c1ncc(N2CCCC2)nc1CN1C(=O)OC(c2cc(C(F)(F)F)cc(C(F)(F)F)c2)[C@@H]1C (some centres unmarked) [Example 103],52%,8.49,Relative Increase HDL-C (%) to VC (Vehicle) (Blood HDL-C): 47%
"CCN(CC1CCC(CC(=O)O)CC1)c1ncc(-c2ccsc2)nc1CN1C(=O)OC(c2cc(C(F)(F)F)cc(C(F)(F)F)c2)C1C [Example 105, trans-4-({[3-({(4S,5S)-5-[3,5-bis(trifluoromethyl)phenyl]-4-methyl-2-oxazolidin-3-yl}methyl)-5-(thiophen-3-yl)pyrazin-2-yl]{[N-(ethyl)aminomethyl]cyclohexyl)}acetic acid]",72%,9.10,–
CCCN(C[C@H]1CC[C@H](CC(=O)O)CC1)c1ncc(N2CCCC2)nc1CN1C(=O)OC(c2cc(C(F)(F)F)cc(C(F)(F)F)c2)[C@@H]1C (some centres unmarked) [Example 124],52%,8.15,–
CCCN(CC1CCC(CC(=O)O)CC1)c1ncc(C2CC2)nc1CN1C(=O)OC(c2cc(C(F)(F)F)cc(C(F)(F)F)c2)C1C (centres unmarked) [Example 125],56%,7.40,Relative Increase HDL-C (%) to VC (Vehicle) (Blood HDL-C): 27%
C[C@H]1C(c2cc(C(F)(F)F)cc(C(F)(F)F)c2)OC(=O)N1Cc1nc(N2CCCC2)cnc1N(C)C[C@H]1CC[C@H](CC(=O)O)CC1 (some centres unmarked) [Example 127],–,7.37,–
C[C@H]1C(c2cc(C(F)(F)F)cc(C(F)(F)F)c2)OC(=O)N1Cc1nc(C2CCC2)cnc1N(C)C[C@H]1CC[C@H](CC(=O)O)CC1 (some centres unmarked) [Example 128],–,7.62,–
C[C@H]1C(c2cc(C(F)(F)F)cc(C(F)(F)F)c2)OC(=O)N1Cc1nc(C2CCCC2)cnc1N(C)C[C@H]1CC[C@H](CC(=O)O)CC1 (some centres unmarked) [Example 129],–,7.47,–
CCN(C[C@H]1CC[C@H](CCO)CC1)c1ncc(-c2c(C)noc2C)nc1CN1C(=O)OC(c2cc(C(F)(F)F)cc(C(F)(F)F)c2)[C@@H]1C (some centres unmarked) [Example 130],–,8.05,–
"CCN(CC1CCC(CCO)CC1)c1ncc(N2CCCC2)nc1CN1C(=O)OC(c2cc(C(F)(F)F)cc(C(F)(F)F)c2)C1C [Example 131, trans-4-({[3-({(4S,5S)-5-[3,5-bis(trifluoromethyl)phenyl]-4-methyl-2-oxazolidin-3-yl}methyl)-5-(pyrrolidin-4-yl)pyrazin-2-yl]{[N-(ethyl)aminomethyl]cyclohexyl)}propanol]",–,8.30,–
"(4S,5R)-5-[3,5-bis(trifluoromethyl)phenyl]-3-({[2-(cyclopropyl)(cyclohexyl)amino]-5-(3,5-dimethyl-isoxazol-4-yl)pyrazin-3-yl}methyl)-4-methyloxazolidin-2-one [Example 97]",–,7.94,–
"(4S,5R)-5-[3,5-bis(trifluoromethyl)phenyl]-4-methyl-3-({2-[(3R,4R)-4-ethoxytetrahydrofuran-3-yl)(methyl)amino]-5-(trifluoromethyl)pyridin-3-yl}methyl)-oxazolidin-2-one [Example 3]",–,6.71,–
"(4S,5R)-5-[3,5-bis(trifluoromethyl)phenyl]-4-methyl-3-({[2-(ethyl)(cyclohexyl)amino]-5-(1,3-dimethyl-1H-pyrazol-4-yl)pyridin-3-yl}methyl)-oxazolidin-2-one [Example 69]",–,7.87,–
"(4S,5R)-5-[3,5-bis(trifluoromethyl)phenyl]-4-methyl-3-({[2-(ethyl)(cyclohexyl)amino]-5-(2,4-dimethyl-thiazol-5-yl)pyridin-3-yl}methyl)-oxazolidin-2-one [Example 84]",–,7.53,–
"(4S,5R)-5-[3,5-bis(trifluoromethyl)phenyl]-4-methyl-3-({[2-(ethyl)(cyclohexyl)amino]-5-(3-methoxy-thiophen-2-yl)pyridin-3-yl}methyl)-oxazolidin-2-one [Example 70]",–,8.00,–
"(4S,5R)-5-[3,5-bis(trifluoromethyl)phenyl]-4-methyl-3-({[2-(methyl)(cyclohexyl)amino]-5-(3,5-dimethyl-isoxazol-4-yl)pyrazin-3-yl}methyl)-oxazolidin-2-one [Example 95]",–,8.42,–
"(4S,5S)-5-[3,5-bis(trifluoromethyl)phenyl]-4-methyl-3-({[2-(methyl)(tetrahydro-2H-pyran-4-yl)amino]-5-(trifluoromethyl)pyridin-3-yl}methyl)-oxazolidin-2-one [Example 6]",–,7.31,–
